This note sets out measurements from US20260256922A1, “PRODRUGS USEFUL FOR REDUCING ANTHRACYCLINE CARDIOTOXICITY” (WAKE FOREST UNIVERSITY HEALTH SCIENCES, priority 2022, published 2026).

The nature of this data set: Selectivity of DOX release from c1 towards biological analytes (LCMS). The following applies: 80 min. Format: physicochemical. As for the experimental part: FIG. 2. Percentage of released DOX from c1 in response to various biological analytes during an 80 min incubation period at room temperature: (1) ammonium bicarbonate buffer (0.1 M, pH 7.5), (2) 10 μM H2O2, (3) 100 μM cysteine, (4) 100 μM homocysteine, (5) 1 mM glutathione, (6) 10 μM glutathione disulfide, (7) 10 µM sodium nitrite, (8) 10 μM sodium hypochlorite, (9) 10 μM superoxide, (10) 10 μM peroxynitrite. A calibration curve was used to determine the concentration of free DOX in response to each analyte. Plotted as the mean±SEM from three independent experiments.
Selectivity of c1. […] After a reaction time of 80 min, an aliquot was removed and analyzed by LCMS. […]
Analyte stock solutions of glutathione (10 mM), oxidized glutathione (10 mM), homocysteine (10 mM), L-cysteine (10 mM), sodium nitrite (NaNO2 10 mM), superoxide (KO2, 10 mM), sodium peroxynitrite (NaOONO, 10 mM), and sodium hypochlorite (NaClO, 10 mM), were prepared in ammonium bicarbonate buffer (0.1 M pH 7.4). […] After reacting for 80 min, a 1 mL (inject volume 60 μL) aliquot was removed and analyzed by LC-MS (using a C18 analytical column and eluting at 0.4 mL/min with a linear gradient (20-90% v/v) MeOH/H2O (0-2 min), followed by 90% v/v MeOH/H2O (2-19 min)). The signals in the chromatogram were recorded at 500 nm and the peak corresponding to free DOX (7.0 min) was integrated.

Regarding `COc1cccc2c1C(=O)c1c(O)c3c(c(O)c1C2=O)C[C@@](O)(C(=O)CO)C[C@@H]3O[C@H]1C[C@H](NC(=S)OCc2ccc(B3OC(C)(C)C(C)(C)O3)cc2)[C@H](O)[C@H](C)O1` [c1], under “in the presence of H2O2 (10 μM)”, the “free DOX observed by LCMS” value is reported as “significant levels of free DOX”. Also, the “stability (DOX release)” value (buffer alone, reductants (cysteine, homocysteine, glutathione), other oxidants (glutathione disulfide, sodium nitrite, sodium hypochlorite, superoxide, peroxynitrite)) is listed as “relatively stable”.
